Assays:
Conditions in all cases: Compound concentration 1000.0 nM
[1] = target: Casein kinase I isoform gamma-3 (Homo sapiens) (UniProt Q9Y6M4)
[2] = target: LIM domain kinase 1 (Homo sapiens) (UniProt P53667)
[3] = tested on: Epidermal growth factor receptor (Homo sapiens), P00533 [UNDEFINED MUTATION]
[4] = target: T1, Activin receptor type-1B (Homo sapiens) (UniProt P36896)
T1 sequence (whole entry): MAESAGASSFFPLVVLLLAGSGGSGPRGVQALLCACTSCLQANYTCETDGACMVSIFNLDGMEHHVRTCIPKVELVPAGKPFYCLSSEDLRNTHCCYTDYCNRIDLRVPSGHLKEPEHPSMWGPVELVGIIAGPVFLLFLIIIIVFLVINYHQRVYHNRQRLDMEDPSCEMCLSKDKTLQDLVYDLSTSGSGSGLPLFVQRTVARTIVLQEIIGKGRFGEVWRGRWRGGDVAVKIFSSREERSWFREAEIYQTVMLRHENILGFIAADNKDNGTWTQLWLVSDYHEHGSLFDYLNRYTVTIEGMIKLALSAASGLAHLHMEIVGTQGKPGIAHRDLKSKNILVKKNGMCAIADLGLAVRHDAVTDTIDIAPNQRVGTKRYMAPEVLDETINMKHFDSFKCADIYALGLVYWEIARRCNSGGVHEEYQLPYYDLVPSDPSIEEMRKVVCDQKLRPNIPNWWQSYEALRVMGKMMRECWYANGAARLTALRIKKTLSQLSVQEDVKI

[5] = target: Cyclin-G-associated kinase (Homo sapiens) (UniProt O14976)
[6] = target: Mitogen-activated protein kinase kinase kinase 1 (Homo sapiens) (UniProt Q13233)
[7] = target: Aurora kinase B (Homo sapiens) (UniProt Q96GD4)
[8] = target: Vascular endothelial growth factor receptor 1 (Homo sapiens) (UniProt P17948)
[9] = target: Tyrosine-protein kinase Fgr (Homo sapiens) (UniProt P09769)
[10] = target: High affinity nerve growth factor receptor (Homo sapiens) (UniProt P04629)
[11] = target: Cyclin-dependent kinase-like 1 (Homo sapiens) (UniProt Q00532)
[12] = target: Mitogen-activated protein kinase kinase kinase 13 (Homo sapiens) (UniProt O43283)
[13] = target: Serine/threonine-protein kinase Nek10 (Homo sapiens) (UniProt Q6ZWH5)
[14] = target: BMP-2-inducible protein kinase (Homo sapiens) (UniProt Q9NSY1)
[15] = tested on: Tyrosine-protein kinase ABL1 (Homo sapiens), P00519 [T315I]
[16] = target: Death-associated protein kinase 3 (Homo sapiens) (UniProt O43293)
[17] = target: T2, Inhibitor of nuclear factor kappa-B kinase subunit alpha (Homo sapiens) (UniProt O15111)
T2 sequence (whole entry): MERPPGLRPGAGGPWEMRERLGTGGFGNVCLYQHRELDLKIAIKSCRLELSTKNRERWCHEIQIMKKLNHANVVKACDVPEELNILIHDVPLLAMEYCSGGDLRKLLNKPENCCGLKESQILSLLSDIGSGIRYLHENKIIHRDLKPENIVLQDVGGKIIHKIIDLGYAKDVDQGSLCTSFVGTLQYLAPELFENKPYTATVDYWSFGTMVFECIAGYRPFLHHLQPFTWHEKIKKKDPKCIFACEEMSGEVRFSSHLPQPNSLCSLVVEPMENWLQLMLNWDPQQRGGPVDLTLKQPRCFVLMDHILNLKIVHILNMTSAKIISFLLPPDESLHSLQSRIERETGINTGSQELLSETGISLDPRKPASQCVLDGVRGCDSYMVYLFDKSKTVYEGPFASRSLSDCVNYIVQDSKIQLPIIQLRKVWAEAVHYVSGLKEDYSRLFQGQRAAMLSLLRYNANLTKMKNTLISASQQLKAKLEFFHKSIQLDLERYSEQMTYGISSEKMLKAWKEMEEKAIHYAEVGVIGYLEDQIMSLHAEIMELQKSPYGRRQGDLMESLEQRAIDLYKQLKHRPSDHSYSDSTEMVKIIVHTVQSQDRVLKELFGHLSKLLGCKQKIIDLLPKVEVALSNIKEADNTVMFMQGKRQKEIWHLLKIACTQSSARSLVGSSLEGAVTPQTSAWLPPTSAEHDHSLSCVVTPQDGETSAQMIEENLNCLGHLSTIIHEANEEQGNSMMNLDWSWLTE

[18] = target: G protein-coupled receptor kinase 4 (Homo sapiens) (UniProt P32298)
[19] = target: T3, Calcium/calmodulin-dependent protein kinase type IV (Homo sapiens) (UniProt Q16566)
T3 sequence (whole entry): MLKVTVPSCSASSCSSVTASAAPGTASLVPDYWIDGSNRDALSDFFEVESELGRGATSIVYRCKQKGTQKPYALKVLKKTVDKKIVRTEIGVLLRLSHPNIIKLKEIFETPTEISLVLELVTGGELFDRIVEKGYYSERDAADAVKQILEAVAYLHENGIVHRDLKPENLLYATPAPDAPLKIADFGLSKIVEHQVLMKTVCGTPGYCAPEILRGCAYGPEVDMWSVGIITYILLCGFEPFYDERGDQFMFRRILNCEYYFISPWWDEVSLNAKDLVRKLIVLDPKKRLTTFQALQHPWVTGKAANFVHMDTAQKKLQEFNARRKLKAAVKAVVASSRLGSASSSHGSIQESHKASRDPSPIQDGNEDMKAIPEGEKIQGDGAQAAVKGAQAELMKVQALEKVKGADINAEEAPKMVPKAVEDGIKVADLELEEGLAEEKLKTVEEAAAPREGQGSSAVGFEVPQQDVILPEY

[20] = target: Insulin receptor-related protein (Homo sapiens) (UniProt P14616)

Measured: residual activity

Sequence of Death-associated protein kinase 3 (Homo sapiens) (O43293 whole entry, looked up): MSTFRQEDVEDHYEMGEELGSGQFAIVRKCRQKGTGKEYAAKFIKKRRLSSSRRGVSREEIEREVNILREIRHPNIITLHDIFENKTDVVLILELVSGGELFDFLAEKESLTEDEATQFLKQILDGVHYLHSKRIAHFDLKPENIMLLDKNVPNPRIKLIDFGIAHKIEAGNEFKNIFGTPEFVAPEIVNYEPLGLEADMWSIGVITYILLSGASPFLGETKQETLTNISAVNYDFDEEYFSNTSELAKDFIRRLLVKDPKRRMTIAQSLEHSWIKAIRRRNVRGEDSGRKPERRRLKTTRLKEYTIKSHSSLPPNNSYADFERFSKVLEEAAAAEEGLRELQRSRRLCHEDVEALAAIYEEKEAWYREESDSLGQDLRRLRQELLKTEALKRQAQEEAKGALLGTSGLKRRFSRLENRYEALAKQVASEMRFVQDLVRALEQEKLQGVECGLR
Sequence of Casein kinase I isoform gamma-3 (Homo sapiens) (Q9Y6M4 whole entry, looked up, the tested form may be a part, canonical isoform): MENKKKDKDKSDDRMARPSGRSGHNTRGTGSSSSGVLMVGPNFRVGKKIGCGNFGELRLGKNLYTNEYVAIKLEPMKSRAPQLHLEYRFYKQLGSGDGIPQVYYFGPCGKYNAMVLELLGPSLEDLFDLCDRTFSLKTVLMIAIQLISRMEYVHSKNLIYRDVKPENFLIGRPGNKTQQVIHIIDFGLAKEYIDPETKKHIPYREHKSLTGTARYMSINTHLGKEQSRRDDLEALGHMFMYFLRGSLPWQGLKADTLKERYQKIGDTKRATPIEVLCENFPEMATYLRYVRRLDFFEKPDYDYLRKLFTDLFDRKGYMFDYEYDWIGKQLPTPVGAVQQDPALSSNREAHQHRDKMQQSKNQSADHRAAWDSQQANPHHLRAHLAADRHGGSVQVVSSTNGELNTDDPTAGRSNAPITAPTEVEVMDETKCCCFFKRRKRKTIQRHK
Sequence of Mitogen-activated protein kinase kinase kinase 1 (Homo sapiens) (Q13233 whole entry): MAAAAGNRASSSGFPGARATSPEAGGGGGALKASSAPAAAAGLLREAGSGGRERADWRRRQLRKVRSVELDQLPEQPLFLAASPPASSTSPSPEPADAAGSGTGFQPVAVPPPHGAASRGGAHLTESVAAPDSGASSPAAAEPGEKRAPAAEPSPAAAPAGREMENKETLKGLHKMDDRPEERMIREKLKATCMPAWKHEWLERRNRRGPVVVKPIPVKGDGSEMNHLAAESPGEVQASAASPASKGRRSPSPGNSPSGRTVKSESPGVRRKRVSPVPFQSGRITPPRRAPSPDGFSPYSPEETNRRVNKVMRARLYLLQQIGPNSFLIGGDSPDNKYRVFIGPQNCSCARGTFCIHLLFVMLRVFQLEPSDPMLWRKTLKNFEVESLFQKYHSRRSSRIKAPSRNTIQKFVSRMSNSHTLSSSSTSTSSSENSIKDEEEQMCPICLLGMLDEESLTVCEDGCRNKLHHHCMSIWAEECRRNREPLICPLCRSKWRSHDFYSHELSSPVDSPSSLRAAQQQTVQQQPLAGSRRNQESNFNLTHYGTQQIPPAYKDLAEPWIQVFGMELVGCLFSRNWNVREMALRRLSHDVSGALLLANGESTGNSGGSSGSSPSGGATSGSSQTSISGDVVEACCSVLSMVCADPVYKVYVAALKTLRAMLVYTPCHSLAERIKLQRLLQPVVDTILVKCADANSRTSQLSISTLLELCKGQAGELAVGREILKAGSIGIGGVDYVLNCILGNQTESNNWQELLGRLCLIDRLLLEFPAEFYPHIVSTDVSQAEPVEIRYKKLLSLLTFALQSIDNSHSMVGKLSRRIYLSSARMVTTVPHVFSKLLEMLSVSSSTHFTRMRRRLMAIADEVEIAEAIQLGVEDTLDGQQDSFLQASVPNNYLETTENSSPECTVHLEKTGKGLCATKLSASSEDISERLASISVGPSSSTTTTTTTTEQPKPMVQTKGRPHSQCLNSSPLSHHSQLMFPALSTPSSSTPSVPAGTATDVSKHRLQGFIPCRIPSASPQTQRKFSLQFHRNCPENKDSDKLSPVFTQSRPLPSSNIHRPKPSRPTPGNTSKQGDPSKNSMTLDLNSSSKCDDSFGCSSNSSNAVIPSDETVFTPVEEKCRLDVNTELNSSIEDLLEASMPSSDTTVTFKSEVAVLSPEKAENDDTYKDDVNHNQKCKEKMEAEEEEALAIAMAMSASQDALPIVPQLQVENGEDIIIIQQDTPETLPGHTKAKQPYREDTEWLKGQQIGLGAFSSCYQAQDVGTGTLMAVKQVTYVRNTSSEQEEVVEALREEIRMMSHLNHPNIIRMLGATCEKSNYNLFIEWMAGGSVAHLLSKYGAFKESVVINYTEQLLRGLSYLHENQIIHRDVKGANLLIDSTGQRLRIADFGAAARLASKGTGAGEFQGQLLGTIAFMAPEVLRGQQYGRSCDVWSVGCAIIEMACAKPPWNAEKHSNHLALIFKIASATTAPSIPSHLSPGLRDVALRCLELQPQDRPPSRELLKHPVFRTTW
Sequence of Tyrosine-protein kinase Fgr (Homo sapiens) (P09769 2-529 limits assumed): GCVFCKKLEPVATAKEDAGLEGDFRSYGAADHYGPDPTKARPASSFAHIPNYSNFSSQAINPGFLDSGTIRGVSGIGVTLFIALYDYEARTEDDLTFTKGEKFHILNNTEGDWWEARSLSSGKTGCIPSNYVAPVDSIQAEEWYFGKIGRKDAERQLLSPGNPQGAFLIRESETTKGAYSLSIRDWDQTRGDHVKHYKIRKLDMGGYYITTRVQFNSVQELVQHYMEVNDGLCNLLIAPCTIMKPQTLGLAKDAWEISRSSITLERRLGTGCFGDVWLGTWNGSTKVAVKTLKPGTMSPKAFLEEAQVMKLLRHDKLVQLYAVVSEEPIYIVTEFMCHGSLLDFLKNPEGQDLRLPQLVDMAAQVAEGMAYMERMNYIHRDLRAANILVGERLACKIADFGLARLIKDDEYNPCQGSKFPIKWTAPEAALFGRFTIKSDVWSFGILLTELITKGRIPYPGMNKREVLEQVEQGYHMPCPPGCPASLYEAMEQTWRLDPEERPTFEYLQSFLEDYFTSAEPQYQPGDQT
Sequence of Serine/threonine-protein kinase Nek10 (Homo sapiens) (Q6ZWH5 whole entry): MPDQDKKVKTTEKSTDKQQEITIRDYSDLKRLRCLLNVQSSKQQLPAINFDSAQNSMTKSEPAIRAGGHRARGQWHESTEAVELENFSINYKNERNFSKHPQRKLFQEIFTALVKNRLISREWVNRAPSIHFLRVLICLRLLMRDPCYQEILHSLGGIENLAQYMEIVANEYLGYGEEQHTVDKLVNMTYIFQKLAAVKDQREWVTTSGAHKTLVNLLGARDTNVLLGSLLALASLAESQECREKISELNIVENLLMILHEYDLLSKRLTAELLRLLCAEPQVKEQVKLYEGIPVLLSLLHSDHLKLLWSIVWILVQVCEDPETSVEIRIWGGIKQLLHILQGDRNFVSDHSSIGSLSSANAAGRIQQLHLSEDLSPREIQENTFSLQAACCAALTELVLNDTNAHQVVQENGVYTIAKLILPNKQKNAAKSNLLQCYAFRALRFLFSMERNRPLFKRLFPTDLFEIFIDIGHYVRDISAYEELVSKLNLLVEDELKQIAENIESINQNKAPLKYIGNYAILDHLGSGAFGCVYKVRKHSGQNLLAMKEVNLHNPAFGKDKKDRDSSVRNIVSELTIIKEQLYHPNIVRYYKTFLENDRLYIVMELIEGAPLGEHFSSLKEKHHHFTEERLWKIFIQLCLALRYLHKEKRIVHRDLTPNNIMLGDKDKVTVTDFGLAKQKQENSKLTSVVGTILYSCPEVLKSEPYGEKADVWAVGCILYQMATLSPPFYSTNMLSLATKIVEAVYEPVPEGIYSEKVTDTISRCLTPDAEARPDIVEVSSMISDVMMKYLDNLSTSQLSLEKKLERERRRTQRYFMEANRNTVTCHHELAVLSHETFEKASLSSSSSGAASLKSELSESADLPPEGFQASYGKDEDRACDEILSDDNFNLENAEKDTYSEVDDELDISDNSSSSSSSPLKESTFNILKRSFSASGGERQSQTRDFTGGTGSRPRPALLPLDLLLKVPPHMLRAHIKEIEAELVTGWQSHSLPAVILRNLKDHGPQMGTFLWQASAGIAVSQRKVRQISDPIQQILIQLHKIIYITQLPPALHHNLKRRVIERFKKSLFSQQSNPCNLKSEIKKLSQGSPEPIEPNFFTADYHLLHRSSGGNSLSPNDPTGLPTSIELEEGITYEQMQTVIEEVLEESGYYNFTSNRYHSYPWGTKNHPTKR
Sequence of G protein-coupled receptor kinase 4 (Homo sapiens) (P32298 whole entry, looked up): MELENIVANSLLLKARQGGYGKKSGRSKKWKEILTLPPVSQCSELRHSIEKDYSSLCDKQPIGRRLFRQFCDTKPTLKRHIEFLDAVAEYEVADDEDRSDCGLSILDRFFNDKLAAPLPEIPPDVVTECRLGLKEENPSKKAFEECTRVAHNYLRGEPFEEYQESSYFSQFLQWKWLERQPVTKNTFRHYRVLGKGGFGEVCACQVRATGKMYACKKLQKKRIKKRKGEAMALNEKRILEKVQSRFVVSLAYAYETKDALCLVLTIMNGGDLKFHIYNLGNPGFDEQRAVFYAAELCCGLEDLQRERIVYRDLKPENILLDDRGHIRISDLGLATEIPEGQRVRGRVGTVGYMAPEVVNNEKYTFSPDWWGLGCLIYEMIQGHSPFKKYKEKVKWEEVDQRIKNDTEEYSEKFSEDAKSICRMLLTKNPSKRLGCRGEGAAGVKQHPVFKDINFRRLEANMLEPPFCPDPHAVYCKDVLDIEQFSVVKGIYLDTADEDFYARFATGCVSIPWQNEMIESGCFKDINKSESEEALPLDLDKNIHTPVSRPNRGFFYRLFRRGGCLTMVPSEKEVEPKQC
Sequence of Aurora kinase B (Homo sapiens) (Q96GD4 whole entry): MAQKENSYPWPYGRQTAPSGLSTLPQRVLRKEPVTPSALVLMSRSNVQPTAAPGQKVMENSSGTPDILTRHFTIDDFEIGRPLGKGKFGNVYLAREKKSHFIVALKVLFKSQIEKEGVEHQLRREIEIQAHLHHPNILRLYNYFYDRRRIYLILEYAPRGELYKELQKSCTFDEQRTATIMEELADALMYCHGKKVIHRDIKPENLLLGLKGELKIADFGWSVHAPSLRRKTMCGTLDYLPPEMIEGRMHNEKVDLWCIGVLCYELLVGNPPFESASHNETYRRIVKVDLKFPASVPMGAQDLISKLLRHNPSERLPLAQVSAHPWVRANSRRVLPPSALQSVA

Cc1nc(C2CCN(C(=O)c3ccc(OC(F)(F)F)cc3N)CC2)c2ncc(N3CCN(C)CC3)cc2n1 [BAY-693]
inactive: [1] 100% | [2] 93% | [3] 100% | [4] 86% | [5] 100% | [6] 82% | [7] 88% | [8] 88% | [9] 100% | [10] 85% | [11] 89% | [12] 100% | [13] 100% | [14] 100% | [15] 89% | [16] 100% | [17] 84% | [18] 96% | [19] 95% | [20] 100%

CN1CCN(c2cnc3c(C4CCN(C(=O)c5ccc(OC(F)(F)F)cc5N)CC4)ncnc3c2)CC1 [BAY-885]
inactive: [1] 100% | [2] 100% | [3] 100% | [4] 79% | [5] 100% | [6] 100% | [7] 90% | [8] 76% | [9] 100% | [10] 100% | [11] 94% | [12] 100% | [13] 100% | [14] 97% | [15] 100% | [16] 91% | [17] 100% | [18] 100% | [19] 94% | [20] 100%
